This passage reports pest or weed control results from patent US20230017045A1, “PYRIDINE AND PYRIMIDINE CARBOXYLATE HERBICIDES AND METHODS OF USE THEREOF” (Dow AgroSciences LLC, priority 2017, published 2023).

This assay concerns test plant species. Description: Post-emergent herbicidal activity test (greenhouse, foliar spray, visual growth reduction). The class given is in vivo. As to conditions: post-emergence, 336 h, 140 g ai/ha, 14 days after application. Here is the method:
Post-emergent Test: Seeds or nutlets of the desired test plant species were planted in Sun Gro Metro-Mix® 360 planting mixture, which typically has a pH of 6.0 to 6.8 and an organic matter content of about 30 percent, in plastic pots with a surface area of 64 square centimeters. In some aspects, to ensure good germination and healthy plants, a fungicide treatment and/or other chemical or physical treatment was applied. The plants were grown for 7-21 d in a greenhouse with an approximate 15 h photoperiod which was maintained at 23-29° C. during the day and 22-28° C. during the night. Nutrients and water were added on a regular basis and supplemental lighting was provided with overhead metal halide 1000-Watt lamps as necessary. Plants were used for testing when they reached the first or second true leaf stage. A weighed amount, determined by the highest rate to be tested, of each test compound was placed in a 25 mL glass vial and was dissolved in 4 mL of a 97:3 v/v mixture of acetone and DMSO to obtain concentrated stock solutions. […] The concentrated stock solutions obtained were diluted with 20 mL of an aqueous mixture containing acetone, water, isopropyl alcohol, DMSO, […] crop oil concentrate, and X-77 surfactant in a 48.5:39:10:1.5:1.0:0.02 v/v ratio to obtain spray solutions containing the application rate. Compound requirements are based upon a 12 mL application volume at a rate of 187 liters per hectare (L/ha). Formulated compounds were applied to the plant material with an overhead Mandel track sprayer equipped with […] nozzles calibrated to deliver 187 L/ha over an application area of 0.64 square meters at a spray height of 18 inches (43 cm) above the average plant canopy height. Control plants were sprayed in the same manner with the solvent blank. The treated plants and control plants were placed in a greenhouse as described above and watered by subirrigation to prevent wash-off of the test compounds. After 14 d, the condition of the test plants as compared with that of the nontreated and control plants was determined visually and scored on a scale of 0 to 100 percent where 0 corresponds to no injury and 100 corresponds to complete control. In the reporting of the results, Table A: Percent Growth Reduction Conversion Table was used.

The mark [1] stands for this setting: ALOMY: blackgrass (Alopecurus myosuroides), read-out: Visual Growth Reduction (%) 14 Days After Application, ALOMY.
[2] abbreviates: AMARE: redroot pigweed (Amaranthus retroflexus), read-out: Visual Growth Reduction (%) 14 Days After Application, AMARE.
Where [3] appears, read: AVEFA: wild oat (Avena fatua), read-out: Visual Growth Reduction (%) 14 Days After Application, AVEFA.
Where [4] appears, read: CHEAL: lambsquarters (Chenopodium album), read-out: Visual Growth Reduction (%) 14 Days After Application, CHEAL.
The mark [5] stands for this setting: CIRAR: canada thistle (Cirsium arvense), read-out: Visual Growth Reduction (%) 14 Days After Application, CIRAR.
Setting [6] is: CYPES: yellow nutsedge (Cyperus esculentus), read-out: Visual Growth Reduction (%) 14 Days After Application, CYPES.
Where [7] appears, read: DIGSA: crabgrass (Digitaria sanguinalis), read-out: Visual Growth Reduction (%) 14 Days After Application, DIGSA.
[8] abbreviates: ECHCG: barnyardgrass (Echinochloa crus-galli), read-out: Visual Growth Reduction (%) 14 Days After Application, ECHCG.
The mark [9] stands for this setting: IPOHE: ivy-leaf morning glory (Ipomoea hederacea), read-out: Visual Growth Reduction (%) 14 Days After Application, IPOHE.
Setting [10] is: KCHSC: kochia (Bassia scoparia), read-out: Visual Growth Reduction (%) 14 Days After Application, KCHSC.
[11] abbreviates: ORYSA: rice (Oryza sativa), read-out: Visual Growth Reduction (%) 14 Days After Application, ORYSA.
The mark [12] stands for this setting: SETFA: giant foxtail (Setaria faberi), read-out: Visual Growth Reduction (%) 14 Days After Application, SETFA.
Where [13] appears, read: SORVU: grain sorghum (Sorghum vulgare), read-out: Visual Growth Reduction (%) 14 Days After Application, SORVU.
Where [14] appears, read: STEME: common chickweed (Stellaria media), read-out: Visual Growth Reduction (%) 14 Days After Application, STEME.
[15] abbreviates: TRZAS: wheat, spring (Triticum aestivum), read-out: Visual Growth Reduction (%) 14 Days After Application, TRZAS.

SMILES strings stand for the structures. Like-named read-outs stand apart in the source and are kept apart here.

As to `O=C(O)c1nc(-c2ccc(C(F)(F)F)cc2Cl)ccc1Cl` [F61, 3-chloro-6-(2-chloro-4-(trifluoromethyl)phenyl)picolinic acid], the pest or weed control at 140 g/ha by setting is: under setting [1], 60 to 74%; under setting [2], 95 to 100%; under setting [3], 60 to 74%; under setting [4], 95 to 100%; under setting [5], 85 to 94%; under setting [6], 0 to 29%. In addition, the pest or weed control at 140 g/ha is, setting by setting: under setting [7], 95 to 100%; under setting [8], 85 to 94%; under setting [9], 95 to 100%; under setting [10], 85 to 94%; under setting [11], 45 to 59%; under setting [12], 85 to 94%. Also, the pest or weed control at 140 g/ha fell in the range of 85 to 94% under setting [13], 0 to 29% under setting [14] and 85 to 94% under setting [15].

In the case of `COC(=O)c1nc(-c2c(F)cc(Cl)cc2Cl)ccc1Cl` [F62, Methyl 3-chloro-6-(2,4-dichloro-6-fluorophenyl) picolinate], the pest or weed control at 140 g/ha was in the range of 0 to 29% under setting [1]; 95 to 100% under setting [2]; 0 to 29% under setting [3]; 75 to 84% under setting [4]; 75 to 84% under setting [5]; 0 to 29% under setting [6]. The pest or weed control at 140 g/ha fell in the range of 75 to 84% under setting [7]; 95 to 100% under setting [9]; 60 to 74% under setting [10]; 0 to 29% under setting [11]; 75 to 84% under setting [12]; 85 to 94% under setting [13]. The pest or weed control at 140 g/ha under setting [14] lay in the range of 0 to 29%.

As to `COC(=O)c1nc(-c2ccc(Cl)c(F)c2Cl)ccc1Cl` [F63, Methyl 3-chloro-6-(2,4-dichloro-3-fluorophenyl) picolinate], the pest or weed control at 140 g/ha reads like this: under setting [1], 0 to 29%; under setting [2], 95 to 100%; under setting [3], 0 to 29%; under setting [4], 95 to 100%; under setting [5], 85 to 94%; under setting [6], 0 to 29%. Further, the pest or weed control at 140 g/ha under setting [7] lay within 85 to 94%; the pest or weed control at 140 g/ha under setting [9] fell in the range of 95 to 100%; the pest or weed control at 140 g/ha under setting [10] was in the range of 60 to 74%; the pest or weed control at 140 g/ha under setting [11] was 0 to 29%; the pest or weed control at 140 g/ha under setting [12] fell in the range of 75 to 84%; the pest or weed control at 140 g/ha under setting [13] lay in the range of 85 to 94%. In addition, the pest or weed control at 140 g/ha under setting [14] fell in the range of 0 to 29%.

With `COC(=O)c1nc(-c2ccc3c(c2)OC(F)(F)O3)ccc1Cl` [F64, Methyl 3-chloro-6-(2,2-difluorobenzo[d] [1,3]dioxol-5-yl) picolinate], the pest or weed control at 140 g/ha by setting is: under setting [1], 0 to 29%; under setting [2], 45 to 59%; under setting [3], 0 to 29%; under setting [4], 60 to 74%; under setting [5], 0 to 29%; under setting [6], 60 to 74%. Moreover, the pest or weed control at 140 g/ha under setting [7] was 85 to 94%; the pest or weed control at 140 g/ha under setting [8] was 0 to 29%; the pest or weed control at 140 g/ha under setting [9] was in the range of 95 to 100%; the pest or weed control at 140 g/ha under setting [10] was in the range of 0 to 29%; the pest or weed control at 140 g/ha under setting [11] is 0 to 29%; the pest or weed control at 140 g/ha under setting [12] was in the range of 0 to 29%. In addition, the pest or weed control at 140 g/ha is, setting by setting: under setting [13], 60 to 74%; under setting [14], 0 to 29%; under setting [15], 0 to 29%.

`COC(=O)c1nc(-c2cc(F)c(Cl)cc2Cl)ccc1Cl` [F65, Methyl 3-chloro-6-(2,4-dichloro-5-fluorophenyl) picolinate]: the pest or weed control at 140 g/ha was in the range of 0 to 29% under setting [1]; 95 to 100% under setting [2]; 0 to 29% under setting [3]; 60 to 74% under setting [4]; 85 to 94% under setting [5]; 0 to 29% under setting [6]. Besides, the pest or weed control at 140 g/ha under setting [7] fell in the range of 95 to 100%; the pest or weed control at 140 g/ha under setting [8] was in the range of 60 to 74%; the pest or weed control at 140 g/ha under setting [9] was 95 to 100%; the pest or weed control at 140 g/ha under setting [10] was in the range of 0 to 29%; the pest or weed control at 140 g/ha under setting [11] was in the range of 30 to 44%; the pest or weed control at 140 g/ha under setting [12] lay within 85 to 94%. For the same compound, the pest or weed control at 140 g/ha is, setting by setting: under setting [13], 60 to 74%; under setting [14], 0 to 29%.

In the case of `COC(=O)c1nc(-c2ccc(C(F)(F)F)cc2Cl)ccc1Cl` [F66, methyl 3-chloro-6-(2-chloro-4-(trifluoromethyl)phenyl)picolinate], the pest or weed control at 140 g/ha by setting is: under setting [1], 45 to 59%; under setting [2], 95 to 100%; under setting [3], 60 to 74%; under setting [4], 85 to 94%; under setting [5], 95 to 100%; under setting [6], 0 to 29%. Also, the pest or weed control at 140 g/ha was 95 to 100% under setting [7]; 95 to 100% under setting [8]; 95 to 100% under setting [9]; 60 to 74% under setting [10]; 45 to 59% under setting [11]; 95 to 100% under setting [12]. Besides, the pest or weed control at 140 g/ha under setting [13] lay within 85 to 94% and the pest or weed control at 140 g/ha under setting [14] was 0 to 29%.

Turning to `O=C(O)c1nc(-c2ccc(Cl)c3c2OC(F)(F)O3)ccc1Cl` [F67, 3-Chloro-6-(7-chloro-2,2-difluorobenzo[d] [1,3]dioxol-4-yl) picolinic acid], the pest or weed control at 140 g/ha by setting is: under setting [1], 0 to 29%; under setting [2], 45 to 59%; under setting [3], 0 to 29%; under setting [4], 0 to 29%; under setting [5], 0 to 29%; under setting [6], 0 to 29%. Besides, the pest or weed control at 140 g/ha under setting [7] was in the range of 0 to 29%; the pest or weed control at 140 g/ha under setting [8] fell in the range of 0 to 29%; the pest or weed control at 140 g/ha under setting [9] fell in the range of 0 to 29%; the pest or weed control at 140 g/ha under setting [10] lay within 0 to 29%; the pest or weed control at 140 g/ha under setting [11] lay in the range of 0 to 29%; the pest or weed control at 140 g/ha under setting [12] lay within 0 to 29%. Under setting [13], the pest or weed control at 140 g/ha was 0 to 29%.

In the case of `COC(=O)c1nc(-c2ccc(Cl)c3c2OC(F)(F)O3)ccc1Cl` [F68, Methyl 3-chloro-6-(7-chloro-2,2-difluorobenzo[d] [1,3]dioxol-4-yl)picolinate], the pest or weed control at 140 g/ha reads like this: under setting [1], 0 to 29%; under setting [2], 0 to 29%; under setting [3], 0 to 29%; under setting [4], 0 to 29%; under setting [5], 0 to 29%; under setting [7], 0 to 29%. In addition, the pest or weed control at 140 g/ha lay in the range of 0 to 29% under setting [8]; 0 to 29% under setting [9]; 0 to 29% under setting [10]; 0 to 29% under setting [11]; 0 to 29% under setting [12]; 0 to 29% under setting [13]. The pest or weed control at 140 g/ha under setting [14] is 0 to 29%.
